Reference: US9486461B2, “Methods and compositions for inducing apoptosis by stimulating ER stress” (UNIVERSITY OF SOUTHERN CALIFORNIA, priority 2007, dated 2016)
Entries after “also recorded” stand apart in the source; their conditions may differ.

Experiments:
[1] = test system: CHOP, GRP78, caspase 4 in U251 glioblastoma cells; assay: Western blot of ER stress indicators in U251 cells; format: cell-based, human; settings: for CHOP expression, time kinetics: U251, 50 μmol/L, 4 h up to 24 h; for increase in CHOP or GRP78 protein, concentration dependence: U251, 15 hours, concentrations up to 75 or 100 μmol/L
Description: U251 glioblastoma cells were cultured in the presence of 1 μM thapsigargin (Tg) or 60 μM DMC for various times, as indicated. Total cell lysates were prepared and analyzed by Western blot with specific antibodies to the ER stress proteins GRP78, CHOP, and caspase 4 (Casp 4). Actin was used as a loading control.
Shown are (A) time kinetics at 50 μM of each drug, and (B) concentration dependence after 15 hours of incubation.
Shown are (FIG. 7A) time kinetics at 50 μM of each drug, and (FIG. 7B), concentration dependence after 15 hours of incubation.
U251 glioblastoma cells were cultured for 24 hours in the presence of increasing concentrations of (A) bortezomib (BZM) or (B) DMC. Total cell lysates were analyzed by Western blot with specific antibodies to ubiquitin, GRP78, CHOP, and caspase 4. Actin was used as a loading control.
Total cell lysates were prepared by lysis of cells with radioimmunoprecipitation assay buffer (28), and protein concentrations were determined using the bicinchoninic acid protein assay reagent (Pierce, Rockford, Ill.). For Western blot analysis, 50 Ag of each sample were processed as described (29). The primary antibodies were purchased from Cell Signaling Technologies (Beverly, Mass.), Cayman Chemical (Ann Arbor, Mich.), or Santa Cruz Biotechnology, Inc. (Santa Cruz, Calif.) and used according to the manufacturer's recommendations. The secondary antibodies were coupled to horseradish peroxidase and detected by chemiluminescence using the SuperSignal West substrate from Pierce. All immunoblots were repeated at least once to confirm the results.
Total cell lysates were prepared and analyzed by Western blot analysis as described earlier (19). Immunohistochemical analysis of protein expression in tumor tissues was performed with the use of the Vectastain avidin-biotin complex method kit (Vector Laboratories) as described previously (32). The primary antibodies were purchased from Cell Signaling Technology or Santa Cruz Biotechnology, Inc. and used according to the manufacturers' recommendations. All immunoblots and stainings were repeated at least once to confirm the results.

U251 glioblastoma cells [2] = assay: Cell death ELISA, U251; format: cell-based, human; settings: U251, 48 hours, concentrations of up to 100 μmol/L
Description: (§1) U251 glioblastoma cells were treated with different drugs, and various parameters of cell growth and cell death were comparatively analyzed. As controls, cells remained either non-treated (Co) or were treated with the solvent DMSO alone. (FIG. 8A) Cells were treated with 30 or 50 μM DMC for 48 hours and the effects on cell growth/survival and on cell death were determined by various assays. […] Below the three panels, the expression levels of the ER stress indicators CHOP, GRP78, and caspase 4 at the end of the 48 hour drug treatment is shown, as determined by Western blot analysis with specific antibodies (actin served as a loading control. (FIG. 8B) Cells were treated with various concentrations of different drugs for 48 hours, as indicated, and cell death was measured with the cell death ELISA kit. (FIG. 8C) Cells were treated with DMC or various coxibs and traditional NSAIDs for 48 hours, as indicated, and cell growth and survival was determined with the conventional MTT assay (control, non-treated cells were set at 100%). MTT assays were performed in 96-well plates with the use of 3.0-8.0×10^3 cells per well as described in detail elsewhere (34). In parallel, the expression levels of CHOP and GRP78 protein were determined by Western blot analysis.
Apoptosis in cell cultures in vitro was determined by using the Cell Death Detection ELISA kit (Roche Diagnostics, Indianapolis, Ind.) according to the manufacturer's instructions. This immunoassay specifically detects the histone region (H1, H2A, H2B, H3, and H4) of mononucleosomes and oligonucleosomes that are released during apoptosis. Ninety-six-well plates were seeded with 1,000 cells per well and read at 405 nm in a Microplate Autoreader (Model EL 311 SX; Bio-Tek Instruments, Inc., Winooski, Vt.).

[3] = test system: cytoplasmic calcium levels in U251 cells; assay: Cytoplasmic calcium imaging (Fura-2/AM); format: cell-based, human; settings: 100 μmol/L of each drug, Fura-2/AM loaded cells
Description: (A) U251 cells were treated with DMC or various coxibs and NSAIDs, and changes in intracellular calcium levels were recorded as described in Materials & Methods. […] Arrows indicate timepoint of drug addition. […] Essentially similar results were also obtained with the LN229 cell line.
The cells were loaded by incubating them with […] Fura-2/AM (Invitrogen) for 30 min at room temperature in external solution containing 138 mmol/L NaCl, 5.6 mmol/L KCl, 1.2 mmol/L MgCl2, 2.6 mmol/L CaCl2, 10 mmol/L HEPES, and 4 mmol/L glucose (pH 7.4). After loading, the cells were rinsed and transferred to the imaging setup. The cells were treated with individual drugs for 10 s, whereas fluorescence was elicited with the excitation wavelength alternating between 350 and 380 nm, using a Polychromator V (TILL Photonics GmbH, Grafelfing, Germany) to provide illumination via a Zeiss Axiovert 100 microscope with a Zeiss Fluar 40 oil objective (Carl Zeiss, Jena, Germany). Images were captured using a Cascade 512B CCD camera (Photometrics, Tucson, Ariz.) controlled with MetaFluor software (Molecular Devices, Sunnyvale, Calif.) at 0.5 Hz acquisition frequency. Ratios of the images obtained at 350 and 380 nm excitation were used to show changes in the cytoplasmic calcium concentration, according to the principles developed by Grynkiewicz et al. (31).

U251 glioblastoma cells [4] = assay: MTT assay, U251; format: cell-based, human; settings: U251, 48 hours, concentrations of up to 100 μmol/L
Description: as §1, with “analysis. […]” for “analysis.”
3-(4,5-Dimethylthiazol-2-yl)-2,5-diphenyltetrazolium bromide (MTT) assays were performed in 96-well plates with the use of 3.0×10^3 to 8.0×10^3 cells per well as described in detail elsewhere (19).

U87 glioblastoma tumors [5] = assay: TUNEL assay of xenograft tumor tissue; settings: U87 xenograft, short-term drug treatment
U87 glioblastoma tumors [6] = assay: Tumor growth in xenograft nude mouse model; format: in vivo, nude mice; settings: daily chow for DMC, 40 mg/kg for rofecoxib, n=5
Description: Once palpable tumors had formed, the animals received daily chow supplemented with DMC, rofecoxib, or no drug. Tumor size was determined every three days. Shown is the average (mean±SD) tumor volume in each group (n=5). Asterisks (**): p<0.01 between control and DMC-treated animals on day 42.

[7] = test system: CHOP protein in U87 glioblastoma tumor tissue; assay: Immunohistochemical staining for CHOP in xenograft tumor tissue; format: in vivo, nude mice; settings: U87 xenograft
Excerpt: In all cases, representative sections are shown.
Immunohistochemical analysis of protein expression in tumor tissues was done with the use of the Vectastain avidin-biotin complex method kit (Vector Laboratories, Burlingame, Calif.) according to the manufacturer's instructions. This procedure uses biotinylated secondary antibodies and a preformed avidin: biotinylated enzyme complex that has been termed the avidin-biotin complex method technique. As the primary antibody, we used anti-CHOP antibody (Santa Cruz Biotechnology) diluted 1:100 in 2% normal goat blocking serum.

[8] = test system: Tumor-associated Brain Endothelial Cells (TuBEC); assay: Trypan blue exclusion, tumor-associated brain endothelial cells; format: cell-based
Description: After drug treatment the cells were incubated for another 12 days in the absence of drug, in order to determine their long-term survival; at that time cytotoxicity was evaluated using the trypan blue exclusion technique. Results are presented as number of viable cells per group.
Tumor-associated Brain Endothelial Cells (TuBEC) were treated with TMZ (300 uM) and 20 uM DMC for 48 hours. The drugs were removed and cells were incubated for another 12 days; at that time cytotoxicity was evaluated using the trypan blue exclusion technique. Results are presented as number of viable cells per group.

human glioblastoma cells = assay: Induction of apoptosis in human glioblastoma cells (FIG. 19); format: cell-based
Excerpt: In the figure, DMC stands for 4-[5-(2,5-dimethylphenyl)-3-(trifluoromethyl)-1H-pyrazol-1-yl]benzenesulfonamide; DBrC stands for 4-[5-(2,5-dibromophenyl)-3-(trifluoromethyl)-1H-pyrazol-1-yl]benzenesulfonamide; and DTF3C stands for 4-[5-(2,5-ditrifluoromethylphenyl)-3-(trifluoromethyl)-1H-pyrazol-1-yl]benzenesulfonamide.

C/C=C(/C)C(=O)O[C@H]1C(C)=C2[C@H]([C@@H]1OC(=O)CCCCCCC)[C@@](C)(OC(C)=O)C[C@H](OC(=O)CCC)[C@@]1(O)[C@H]2OC(=O)[C@@]1(C)O [thapsigargin]
time at which activation (cleavage) of caspase-4 was first noted ([1]; U251, 1 μM thapsigargin or 60 μM DMC): ~24 h | CHOP and GRP78 expression levels ([1]; U251, 1 μM thapsigargin or 60 μM DMC, prominent increase at 6 h and thereafter): substantially elevated

CC1=C(CC(=O)O)c2cc(F)ccc2/C1=C\c1ccc([S+](C)[O-])cc1 (stereo not shown) [sulindac]
induction of cell death/apoptosis (cell death ELISA) (U251 glioblastoma cells [2]): did not induce apoptosis | elevation of cytoplasmic calcium levels [3]: none | detectable effect on cell growth and survival (MTT) (U251 glioblastoma cells [4]): none

CS(=O)(=O)c1ccc(C2=C(c3ccccc3)C(=O)OC2)cc1 [rofecoxib, 4-(4′-methylsulfonylphenyl)-3-phenyl-2-(5H)-furanone]
induction of cell death/apoptosis (cell death ELISA) (U251 glioblastoma cells [2]): did not induce apoptosis | elevation of cytoplasmic calcium levels [3]: none | apoptosis in the tumor tissue (U87 glioblastoma tumors [5]): did not display elevated levels of apoptosis | tumor growth on longer-term therapy (U87 glioblastoma tumors [6]): not | CHOP staining of tumor tissues ([7]; 30-180 mg/kg per day for 50 h, DMC and celecoxib already at lowest dosages): consistently negative | CHOP protein expression in tumor tissue ([7]; animals fed drug for 50 h): no such increase was observed | detectable effect on cell growth and survival (MTT) (U251 glioblastoma cells [4]): none | CHOP expression, time kinetics [1]: neither rofecoxib nor valdecoxib at the same concentration resulted in any detectable CHOP expression | increase in CHOP or GRP78 protein, concentration dependence [1]: neither rofecoxib nor valdecoxib was able to stimulate any detectable increase

Cc1onc(-c2ccccc2)c1-c1ccc(S(N)(=O)=O)cc1 [valdecoxib, 4-[5-Methyl-3-phenylisoxazol-4-yl]-benzenesulfonamide]
induction of cell death/apoptosis (cell death ELISA) (U251 glioblastoma cells [2]): did not induce apoptosis | elevation of cytoplasmic calcium levels [3]: none | detectable effect on cell growth and survival (MTT) (U251 glioblastoma cells [4]): none | CHOP expression, time kinetics [1]: neither rofecoxib nor valdecoxib at the same concentration resulted in any detectable CHOP expression | increase in CHOP or GRP78 protein, concentration dependence [1]: neither rofecoxib nor valdecoxib was able to stimulate any detectable increase

Cn1nnc2c(C(N)=O)ncn2c1=O [Temozolomide]
cytotoxicity on tumor-associated brain endothelial cells [8]: little cytotoxicity

NS(=O)(=O)c1ccc(-n2nc(C(F)(F)F)cc2-c2cc(Br)ccc2Br)cc1 [DBrC, 4-[5-(2,5-dibromophenyl)-3-(trifluoromethyl)-1H-pyrazol-1-yl]benzenesulfonamide]
relative ability to induce apoptosis / cell killing effect compared to DMC (human glioblastoma cells): surprisingly potent cell killing effect

CC(C(=O)O)c1ccc(-c2ccccc2)c(F)c1 (stereo not shown) [flurbiprofen]
induction of cell death/apoptosis (cell death ELISA) (U251 glioblastoma cells [2]): did not induce apoptosis | elevation of cytoplasmic calcium levels [3]: none | detectable effect on cell growth and survival (MTT) (U251 glioblastoma cells [4]): none

COc1ccc2c(c1)c(CC(=O)O)c(C)n2C(=O)c1ccc(Cl)cc1 [indomethacin]
induction of cell death/apoptosis (cell death ELISA) (U251 glioblastoma cells [2]): did not induce apoptosis | elevation of cytoplasmic calcium levels [3]: none | detectable effect on cell growth and survival (MTT) (U251 glioblastoma cells [4]): none

NS(=O)(=O)c1ccc(-n2nc(C(F)(F)F)cc2-c2cc(C(F)(F)F)ccc2C(F)(F)F)cc1 [DTF3C, 4-[5-(2,5-ditrifluoromethylphenyl)-3-(trifluoromethyl)-1H-pyrazol-1-yl]benzenesulfonamide]
relative ability to induce apoptosis / cell killing effect compared to DMC (human glioblastoma cells): surprisingly potent cell killing effect; also recorded: most potent compound
